This is an account of results in US5902815A, “Use of 5HT-2A serotonin agonists to prevent adverse effects of NMDA receptor hypofunction” (priority 1996, dated 1999).

In series [1] the test system is NR/hypo-induced vacuoles in PC/RS cortical neurons (MK-801). Kind of series: Anti-psychotic drugs and sigma blockers: protection against NR/hypo-induced vacuoles. Conditions: for ED50: Rattus norvegicus, Cortical neurone, read-out: ED50 in protecting against NR/hypo-induced vacuoles; for ED50 / activity in protecting against NR/hypo-induced vacuoles (words): ip; for effect on vacuole formation / activity in protecting against NR/hypo-induced vacuoles (words): rats, MK-801; for activity in protecting against NR/hypo-induced vacuoles (words): sulpiride given only 15 minutes prior to MK-801. The series is classed as in vivo, rats. As for the experimental part:
Several of the antipsychotic agents tested (haloperidol, thioridazine and loxapine) are known to interact with both dopamine receptors and sigma receptors.
Control animals received saline or DMSO, but no anti-psychotic drugs. Test animals were injected ip with an antipsychotic drug, listed above and in Table 2. Vacuoles were counted and data were processed as described in Example 1.

Series [2] concerns vacuolated pyramidal neurons of posterior cingulate and retrosplenial (PC/RS) cortices, MK-801 neurotoxicity. Put plainly: Blocking MK-801 neurotoxicity (vacuolated PC/RS cortical neurons) in rats by serotonergic agents. In kind it is in vivo, adult female rats. Conditions: for ED50: Rattus norvegicus, Pyramidal neuron, read-out: ED50 in blocking MK-801 neurotoxicity, rats. As for the experimental part:
Each test rat also received a 5HT-2A/2C agonist drug (LSD, DOB, DOI, or DOM), while control rats received an inert carrier liquid as a placebo. After 4 hours, the rats were sacrificed, and brain tissue from specific regions which are susceptible to NR/hypo damage (layers III and IV of the posterior cingulate (PC) and retrosplenial (RS) cortices) were examined for vacuoles in the neurons, which are an indicator of toxic neuronal injury induced by NMDA receptor hypofunction.
DOI was purchased from Research Biochemicals International (Natick, Mass.).
(§1) For each test agent, at least 20 rats were used, and at least four dosages were tested.
(§2) The rats were sacrificed four hours after drug administration, and brain tissue from the PC/RS region was histopathologically evaluated by previously described methods using double-blinded techniques (Olney et al 1991). The number of vacuolated PC and RS neurons were counted on each side of the brain at a rostrocaudal level immediately posterior to where the corpus callosum ceases decussating across the midline (approximately 5.6 mm caudal to Bregma; Paxinos & Watson, The Rat Brain in Stereotaxic Coordinates, 2d Ed., 1986).
This drug is widely used in Europe, and is a 5HT-2A agonist but a 5HT-2C antagonist.
It is described in Nozulak et al 1993.

The test system of series [3] is 5HT-2A receptors. Conditions: Burris et al 1991 or other literature; cited from earlier work.
Series [4] has as its system 5HT2C receptors. Conditions: Burris et al 1991 or other literature; cited from earlier work.
Series [5] has as its system cerebrocortical neurons. Conditions: cited from earlier work.
Series [6] deals with humans. Conditions: cited from earlier work; for psychotomimetic reactions / psychosis in humans: NMDA antagonists.
Series [7] deals with pyramidal neurons in layers III and IV of the posterior cingulate (PC) and retrosplenial (RS) cortices. Kind of series: Neurotoxic reaction to MK-801 in control rats (vacuolated neurons per section). In kind it is in vivo, adult female rats. Conditions: MK-801 0.5 mg/kg sc plus vehicle; ± SEM; n=26. The procedure:
as §1, §2

Series [8] has as its system NMDA receptors in chick embryo retina. Put plainly: Excitotoxicity in chick embryo retina (NMDA with MK-801, LSD or DOI). Conditions: MK-801 500 nM plus NMDA 40 μM, with or without LSD or DOI 500 nM to 100 μM; n=6 per condition. The procedure: Several tests were performed to ensure that when a 5HT-2A agonist is administered together with an NMDA antagonist, the 5HT-2A agonist will not interfere with the activity of the NMDA antagonist drug at NMDA receptors.
These experiments were performed using segments of chick embryo retina. This is a widely used model for studying the production and prevention of excitotoxic phenomena, since it is simple and inexpensive. Chick tissue is used, since it tends to provide a better model of adult mammalian tissue than embryonic or juvenile mammalian tissue. Unlike newborn mammals, which are usually blind at birth, baby chicks can see quite well as soon as they emerge from the shell, and the NMDA receptors in chick retinal tissue are fully mature and functional.
In these tests, NMDA was introduced into the incubation medium in a concentration (40 μM) sufficient to produce a fully developed excitotoxic lesion within 30 min, displaying acute degeneration and necrosis of the majority of neurons in the inner layers of the retina.

Series [9] relates to schizophrenia. Conditions: cited from earlier work.
The subject of series [10] is craving for cocaine. Conditions: Sershen 1994; cited from earlier work.
In series [11] the test system is 5HT-2A/2C receptor. Put plainly: 5HT-2A/2C antagonist block of agonist protection against MK-801 neurotoxicity. In kind it is in vivo, adult female rats. From the text: The following example confirms that the neuroprotective effects provided by 5HT-2A/2C agonists are mediated through either the 5HT-2A or 5HT-2C receptor (or both), rather than through cross-reactivity at some other receptor or through some other mechanism. This was done by showing that these neuroprotective effects are blocked by selective 5HT-2A/2C antagonists.
Ritanserin is an antagonist drug that selectively blocks activation of 5HT-2A/2C receptors.
The brains were processed and the severity of damage was assessed as described in Example 1. Results were analyzed by analysis of covariance (ANCOVA) where the dose of DOI was the covariate and the presence of ritanserin served as the classification (treatment) variable. The homogeneity of slopes assumption was tested by determining whether there was a significant interaction between the covariate and the treatment variable.

Setting [12] is: ip, 4 h, MK-801 0.5 mg/kg sc, test compound ip, dose reducing mean vacuolated neurons to 50% of control, 4 h.
[13] abbreviates: Olney et al 1989, Corso et al 1994, adult rat.

Entries after “also recorded” stand apart in the source; their conditions may differ. Like-named read-outs stand apart in the source and are kept apart here.

For the compound `Clc1ccc2c(c1)C(N1CCNCC1)=Nc1ccccc1O2` [Amoxapine], in series [1], the ED50 came out at 75 mg/kg.
Consider `COc1cc(CC(C)N)c(OC)cc1Br` (stereo not shown) [DOB, 1-(2,5-dimethoxy-4-bromophenyl)-2-aminopropane], for which the ED50 in [2] (setting [12]) turned out to be 0.36 mg/kg. For the same compound, in series [3], the “activity at 5HT-2A receptors” value was “selectively activate 5HT-2A and 5HT-2C receptors with higher affinity than other 5HT receptors”. The “activity at 5HT-2C receptors” value in series [4] is “selectively activate 5HT-2A and 5HT-2C receptors with higher affinity than other 5HT receptors”.
For the compound `COc1cc(CC(C)N)c(OC)cc1I` (stereo not shown) [DOI, 1-(2,5-dimethoxy-4-iodophenyl)-2-aminopropane], the “protection against NMDA antagonist toxicity with SDZ SER-082 added” value in series [2] (DOI n=29, SDZ SER-082 added to block 5HT-2C receptor) is reported as “found to protect against NMDA antagonist toxicity”. Further, the ED50 in series [2] (setting [12]) came out at 1.05 mg/kg. Besides, the “activity at 5HT-2A receptors” value in series [3] is “selectively activate 5HT-2A and 5HT-2C receptors with higher affinity than other 5HT receptors”. The “activity at 5HT-2C receptors” value in series [4] is “selectively activate 5HT-2A and 5HT-2C receptors with higher affinity than other 5HT receptors”.
As for `COc1cc(CC(C)N)c(OC)cc1C` (stereo not shown) [DOM, 1-(2,5-dimethoxy-4-methylphenyl)-2-aminopropane], the ED50 in series [2] (setting [12]) was found to be 0.81 mg/kg. For the same compound, the “activity at 5HT-2A receptors” value in [3] is “selectively activate 5HT-2A and 5HT-2C receptors with higher affinity than other 5HT receptors”. Moreover, the “activity at 5HT-2C receptors” value in series [4] was “selectively activate 5HT-2A and 5HT-2C receptors with higher affinity than other 5HT receptors”.
For the compound `Cc1ccccc1N=C(N)Nc1ccccc1C` [Di(2-tolyl)guanidine, di(2-tolyl)guanidine], in series [1], the ED50 was found to be 22.2 mg/kg.
With `CN1CCN(C2=Nc3cc(F)ccc3Cc3ccccc32)CC1` [Fluperlapine], in series [1], the ED50 stood at 2.3 mg/kg and the “effect on vacuole formation” value is listed as “shown to reduce vacuole formation”.
As to `O=C(CCCN1CCC(O)(c2ccc(Cl)cc2)CC1)c1ccc(F)cc1` [Haloperidol], the ED50 in [1] turned out to be 5.1 mg/kg.
Turning to `CNC1(c2ccccc2Cl)CCCCC1=O` (stereo not shown) [Ketamine], the “pathomorphological changes in brain” value in series [5] (rat, in vivo) was “cause pathomorphological changes in the cerebral cortex of adult rats”. The “psychotomimetic reactions / psychosis in humans” value in series [6] was “produces symptoms in normal humans that are indistinguishable from the symptoms of psychosis and thought disorder seen in schizophrenia”. For the same compound, in series [6] (anesthetic, intravenous), the duration of action entry is reported as “about 15 minutes”.
Consider `CCN(CC)C(=O)[C@@H]1C=C2c3cccc4[nH]cc(c34)C[C@H]2N(C)C1` [LSD, lysergic acid diethylamide], for which the ED50 in series [2] (setting [12]) was 0.68 mg/kg. Also, the “ED50 in blocking MK-801 neurotoxicity” value in series [2] (rats, MK-801 0.5 mg/kg sc, test compound ip, dose reducing mean vacuolated neurons to 50% of control, 4 h, 240 min) is reported as 0.67 mg/kg. The “activity at 5HT-2A receptors” value in series [3] was “agonizes 5HT-2A and 5HT-2C receptors”. The “activity at 5HT-2C receptors” value in [4] is “agonizes 5HT-2A and 5HT-2C receptors”.
For `CCN(CC)C(=O)N[C@H]1C=C2c3cccc4[nH]cc(c34)C[C@H]2N(C)C1` [Lisuride], the “prevention of the neurotoxic action of MK-801 / vacuole formation” value in series [2] (rats, 5HT-2A/2C agonists, ip) is listed as “can prevent vacuole formation caused by MK-801”. In addition, the hallucinations entry in series [6] (in vivo) is given as “does not cause hallucinations”.
For the compound `CN1CCN(C2=Nc3ccccc3Oc3ccc(Cl)cc32)CC1` [Loxapine], in series [1], the ED50 turned out to be 23.6 mg/kg.
For `COc1cccc([C@H](O)C2CCN(CCc3ccc(F)cc3)CC2)c1OC` [MDL 100,907], the “activity at 5HT-2A receptors” value in [3] was “preferentially antagonizes 2A receptors”. Besides, in [4], the “activity at 5HT-2C receptors” value is on record as “does not substantially affect 2C receptors”.
`C[C@]12N[C@H](Cc3ccccc31)c1ccccc12` [MK-801, (+)-5-methyl-10,11-dihydro-5H-di[a,d]cyclohepten-5,10-imine]: the “mean number of vacuolated neurons per section” value in [7] amounted to 223±10.5. The “protection against NMDA excitotoxic damage” value in series [8] is on record as “completely protected against excitotoxic damage; also recorded: showed no cytopathology”.
On to `Cc1cc2c(s1)Nc1ccccc1N=C2N1CCN(C)CC1` [Olanzapine], for which, in [1], the ED50 came to 1.4 mg/kg and the “effect on vacuole formation” value is “shown to reduce vacuole formation”.
For `c1ccc(C2(N3CCCCC3)CCCCC2)cc1` [Phencyclidine], the “pathomorphological changes in brain” value in series [5] (setting [13]) is “produce pathomorphological changes in various corticolimbic regions of the adult rat brain”. Also, in series [6], the “psychotomimetic reactions / psychosis in humans” value is given as “can induce a psychosis which is clinically indistinguishable from schizophrenia”.
Take `C[C@@H]1CN(CCCn2c3ccccc3c3ccccc32)C[C@H](C)N1` [Rimcazole]: the ED50 in [1] came out at 17.8 mg/kg.
On to `CN1CC[C@@H]2CN3CCc4cccc(c43)[C@@H]2C1.O=C(O)/C=C/C(=O)O` [SDZ SER-082], for which the “effect on MK-801 neurotoxicity” value in series [2] (selective 5HT-2C antagonist, n=22) was “did not affect MK-801 neurotoxicity, either positively or negatively”. Also, the “activity at 5HT-2C receptors” value in [4] is reported as “selective 5HT-2C antagonist”.
For the compound `CCN1CCCC1CNC(=O)c1cc(S(N)(=O)=O)ccc1OC` (stereo not shown) [Sulpiride], in series [1], the ED50 is above 200 mg/kg. Besides, the “activity in protecting against NR/hypo-induced vacuoles (words)” value in [1] is “Inactive”; in series [1] (listed as sulpiride), “inactive”.
With `CSc1ccc2c(c1)N(CCC1CCCCN1C)c1ccccc1S2` (stereo not shown) [Thioridazine], in series [1], the ED50 is 55.3 mg/kg.
In the case of `CCNC1(c2cccs2)CCCCC1=O` (stereo not shown) [Tiletamine], the “pathomorphological changes in brain” value in series [5] (setting [13]) is listed as “cause pathomorphological changes in the cerebral cortex of adult rats”.
For `CCNC(C)Cc1cccc(C(F)(F)F)c1` (stereo not shown) [fenfluramine], the “effect on symptoms of schizophrenia” value in series [9] (schizophrenic patients) is “can exacerbate the symptoms and displays of schizophrenia”.
Turning to `CC[C@H]1C[C@H]2C[C@H]3c4[nH]c5ccc(OC)cc5c4CCN(C2)[C@@H]13` [ibogaine], the “suppression of craving for cocaine” value in series [10] is reported as “can suppress the craving for cocaine”.
As for `Cc1nc2sccn2c(=O)c1CCN1CCC(=C(c2ccc(F)cc2)c2ccc(F)cc2)CC1` [ritanserin], in [11] (ritanserin 0.03 mg/kg ip plus various doses of DOI, F(1,84)=23.36, p<0.0005), the “effect of antagonist on DOI's protection” value is listed as “competitively blocks DOI's protective effects against the toxic side effects of MK-801; also recorded: significantly interfered with DOI's protection”. In addition, in series [11] (ritanserin 0.03 mg/kg ip, FIG. 3), the “shift of the DOI blocking curve by ritanserin” value was “shifted the blocking curve to the right”. Moreover, the “effect on positive symptoms of schizophrenia” value in series [9] (hallucinations, delusions) is on record as “did not help relieve "positive" symptoms”. Further, the “effect on symptoms of schizophrenia” value in series [9] (schizophrenic patients) is “only helped relieve certain "negative" symptoms of schizophrenia”. Further, the “effect on exacerbation of schizophrenia by mCPP” value in series [9] (schizophrenic patients, mCPP) is reported as “can be blocked”.
As for `N[C@@H](Cc1c[nH]c2ccccc12)C(=O)O` [tryptophan], the “effect on symptoms of schizophrenia” value in [9] (schizophrenic patients) was “can exacerbate the symptoms and displays of schizophrenia”.
